Results on 32 molecules are retold here after patent US12441689B2 (EpiVario, Inc., priority 2019, dated 2025).

Where only a bound is given, the exact number is not on record here.

Broadly, the IC50 is the concentration at which inhibition is half-maximal.

Sequence of human ACSS2 protein (Q9NR19 whole entry): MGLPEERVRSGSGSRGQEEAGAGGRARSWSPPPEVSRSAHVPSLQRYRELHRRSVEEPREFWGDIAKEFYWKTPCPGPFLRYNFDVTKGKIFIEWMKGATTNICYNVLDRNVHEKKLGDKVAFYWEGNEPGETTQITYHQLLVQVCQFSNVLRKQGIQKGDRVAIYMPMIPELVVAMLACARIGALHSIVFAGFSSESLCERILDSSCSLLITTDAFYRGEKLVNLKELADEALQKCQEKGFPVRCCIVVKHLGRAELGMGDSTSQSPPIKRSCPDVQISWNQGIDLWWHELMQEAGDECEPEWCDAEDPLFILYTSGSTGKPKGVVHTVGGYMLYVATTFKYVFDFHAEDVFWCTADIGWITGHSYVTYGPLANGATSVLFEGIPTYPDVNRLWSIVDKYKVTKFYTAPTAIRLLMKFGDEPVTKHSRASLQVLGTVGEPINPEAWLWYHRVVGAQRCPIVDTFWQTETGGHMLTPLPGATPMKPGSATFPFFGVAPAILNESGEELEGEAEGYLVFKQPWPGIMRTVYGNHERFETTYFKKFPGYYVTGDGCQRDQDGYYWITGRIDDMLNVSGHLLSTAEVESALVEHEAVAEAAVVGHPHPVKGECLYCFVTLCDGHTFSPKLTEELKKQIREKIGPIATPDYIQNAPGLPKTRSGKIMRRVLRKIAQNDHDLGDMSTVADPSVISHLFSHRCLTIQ

In the experiment the target is human ACSS2 protein (Homo sapiens (Human), UniProt Q9NR19). Nature of the experiment: ACSS2 Cell-Free Activity Assay (Cell-Free IC50). The conditions noted are these: 10 nM human ACSS2 protein, 90 minutes at 37 C, pyrophosphatase-coupled, Biomol Green absorbance at 620 nm; read-out: ACSS2 Biochemical IC50. An excerpt:
ACSS2 Cell-Free Activity Assay (Cell-Free IC50)
As for `Cc1nn(-c2ccc(OC(F)F)cc2)c(C(C)C)c1C(=O)Nc1cccc(C(C)(F)F)c1` [Compound 146, N-[3-(1,1-difluoroethyl)phenyl]-1-[4-(difluoromethoxy)phenyl]-5-isopropyl-3-methyl-pyrazole-4-carboxamide], the IC50 was more than 100 nM.

As to `Cc1nc(-c2ccc(OC(F)F)cc2)ncc1C(=O)Nc1cccc(C(C)(F)F)c1` [Compound 144, N-[3-(1,1-difluoroethyl)phenyl]-2-[4-(difluoromethoxy)phenyl]-4-methyl-pyrimidine-5-carboxamide], the IC50 was more than 100 nM.

For `COc1ccc(-c2nc(C)c(C(=O)Nc3cccc(C(C)(F)F)c3)o2)cc1` [Compound 142, N-(3-(1,1-difluoroethyl)phenyl)-2-(4-methoxyphenyl)-4-methyloxazole-5-carboxamide], the IC50 was more than 100 nM.

Turning to `CCC(F)(F)c1cccc(NC(=O)c2nc(-c3ccc(OC(F)F)c(-c4ccccc4)n3)[nH]c2C)c1` [Compound 260, 2-(5-(difluoromethoxy)-6-phenylpyridin-2-yl)-N-(3-(1,1-difluoropropyl)phenyl)-5-methyl-1 H-imidazole-4-carboxamide], the IC50 was more than 100 nM.

Turning to “1-(4-(difluoromethoxy)phenyl)-3-methyl-4-(1-((4-(methylsulfonyl)phenyl)amino)-1H-1,2,3-triazol-4-yl)-1H-pyrazol-5(4H)-one [Compound 195]”, the IC50 was more than 100 nM.

Take `Cc1nn(-c2ccc(OC(F)F)cc2)c(CO)c1C(=O)Nc1cccc(C(C)(F)F)c1` [Compound 194, N-[3-(1,1-difluoroethyl)phenyl]-1-[4-(difluoromethoxy)phenyl]-5-(hydroxymethyl)-3-methyl-pyrazole-4-carboxamide]: the IC50 lay in the range of 1 to 100 nM.

Turning to `Cc1nn(-c2ccc(OC(F)F)c(-c3cccnc3)c2)c(C)c1C(=O)Nc1cccc(C(C)(F)F)c1` [Compound 179, N-(3-(1,1-difluoroethyl)phenyl)-1-(4-(difluoromethoxy)-3-(pyridin-3-yl)phenyl)-3,5-dimethyl-1H-pyrazole-4-carboxamide], the IC50 lay in the range of 1 to 100 nM.

Regarding `COc1c(Cc2ccc(O)cc2)cc(N2N=C(C)C(C(=O)Nc3cccc(C(C)(F)F)c3)C2=O)cc1-c1ccccc1` (centres unmarked) [Compound 228, N-(3-(1,1-difluoroethyl)phenyl)-1-(5-(4-hydroxybenzyl)-6-methoxy-[1,1′-biphenyl]-3-yl)-3-methyl-5-oxo-4,5-dihydro-1H-pyrazole-4-carboxamide], the half-inhibitory concentration (IC50) was in the range of 1 to 100 nM.

Regarding `Cc1nn(-c2ccc(OC(F)F)cc2)c(C)c1C(=O)Nc1cccc(C(C)(F)F)c1` [Compound 184, N-(3-(1,1-difluoroethyl)phenyl)-1-(4-(difluoromethoxy)phenyl)-3,5-dimethyl-1H-pyrazole-4-carboxamide], the half-maximal inhibitory concentration (IC50) was more than 100 nM.

For the molecule `Cc1oc(-c2ccc(OC(F)F)c(-c3ccccc3)c2)nc1C(=O)Nc1cccc(C(C)(F)F)c1` [Compound 124, N-[3-(1,1-difluoroethyl)phenyl]-2-[4-(difluoromethoxy)-3-phenyl-phenyl]-5-methyl-oxazole-4-carboxamide], the IC50 is more than 100 nM.

In the case of `CC1=NN(c2ccc(OC(C)C)cc2)C(=O)C1(F)C(=O)Nc1cccc(C(C)(F)F)c1` (centres unmarked) [Compound 208, N-(3-(1,1-difluoroethyl)phenyl)-4-fluoro-1-(4-isopropoxyphenyl)-3-methyl-5-oxo-4,5-dihydro-1H-pyrazole-4-carboxamide], the IC50 was less than 1 nM.

As for `CC1=NN(c2ccc(C=C(c3ccccc3)c3ccccc3)c(-c3cccnc3)c2)C(=O)C1C(=O)Nc1cccc(C(C)(F)F)c1` (centres unmarked) [Compound 109], the 50% inhibitory concentration (IC50) lay within 1 to 100 nM.

On to `CCC(C)Oc1ccc(N2N=C(C)C(F)(C(=O)Nc3cccc(C(C)(F)F)c3)C2=O)cc1` (centres unmarked) [Compound 207, N-[3-(1,1-difluoroethyl)phenyl]-4-fluoro-3-methyl-5-oxo-1-(4-sec-butoxyphenyl)pyrazole-4-carboxamide], for which the half-inhibitory concentration (IC50) was less than 1 nM.

`CCC(F)(F)c1cccc(NC(=O)c2nc(-c3ccc(OC(F)F)c(-c4ccccc4)c3)cnc2C)c1` [Compound 117, 6-[4-(difluoromethoxy)-3-phenyl-phenyl]-N-[3-(1,1-difluoropropyl)phenyl]-3-methyl-pyrazine-2-carboxamide]: the IC50 is more than 100 nM.

With `Cc1nn(-c2ccc(OC(F)F)c(-c3ccccn3)c2)c(C)c1C(=O)Nc1cccc(C(C)(F)F)c1` [Compound 177, N-(3-(1,1-difluoroethyl)phenyl)-1-(4-(difluoromethoxy)-3-(pyridin-2-yl)phenyl)-3,5-dimethyl-1H-pyrazole-4-carboxamide], the IC50 was in the range of 1 to 100 nM.

Consider `Cc1nc(-c2ccc(OC(F)F)c(-c3ccccn3)c2)oc1C(=O)Nc1cccc(C(C)(F)F)c1` [Compound 213, N-(3-(1,1-difluoroethyl)phenyl)-2-(4-(difluoromethoxy)-3-(pyridin-2-yl)phenyl)-4-methyloxazole-5-carboxamide], for which the IC50 is more than 100 nM.

Regarding `CCc1c(C(=O)Nc2cccc(C(C)(F)F)c2)c(C)nn1-c1ccc(OC(F)F)c(-c2cccnc2)c1` [Compound 152, N-[3-(1,1-difluoroethyl)phenyl]-1-[4-(difluoromethoxy)-3-(3-pyridyl)phenyl]-5-ethyl-3-methyl-pyrazole-4-carboxamide], the IC50 was more than 100 nM.

In the case of `Cc1oc(-c2ccc(OC(F)F)c(-c3ccccn3)c2)nc1C(=O)Nc1cccc(C(C)(F)F)c1` [Compound 258, N-(3-(1,1-difluoroethyl)phenyl)-2-(4-(difluoromethoxy)-3-(pyridin-2-yl)phenyl)-5-methyloxazole-4-carboxamide], the IC50 was more than 100 nM.

For the molecule `CCC(F)(F)c1cccc(NC(=O)c2c(C)nn(-c3ccc(OC)cc3)c2F)c1` [Compound 229, N-(3-(1,1-difluoropropyl)phenyl)-5-fluoro-1-(4-methoxyphenyl)-3-methyl-1H-pyrazole-4-carboxamide], the concentration for half-maximal inhibition (IC50) was in the range of 1 to 100 nM.

For the molecule `Cc1nn(-c2ccc(OC(F)F)cc2)c(CC(C)C)c1C(=O)Nc1cccc(C(C)(F)F)c1` [Compound 150, N-(3-(1,1-difluoroethyl)phenyl)-1-(4-(difluoromethoxy)phenyl)-5-isobutyl-3-methyl-1H-pyrazole-4-carboxamide], the half-maximal inhibitory concentration (IC50) is more than 100 nM.

With `Cc1nn(-c2ccc(OC(F)F)c(-c3ccccn3)c2)cc1C(=O)Nc1cccc(C(C)(F)F)c1` [Compound 175, N-[3-(1,1-difluoroethyl)phenyl]-1-[4-(difluoromethoxy)-3-(2-pyridyl)phenyl]-3-methyl-pyrazole-4-carboxamide], the IC50 was 1 to 100 nM.

Take `Cc1nc(-c2ccc(OC(F)F)c(-c3ccccn3)c2)ncc1C(=O)Nc1cccc(C(C)(F)F)c1` [Compound 120, N-(3-(1,1-difluoroethyl)phenyl)-2-(4-(difluoromethoxy)-3-(pyridin-2-yl)phenyl)-4-methylpyrimidine-5-carboxamide]: the IC50 is more than 100 nM.

For the molecule `Cc1cc(-c2ccccc2)cc(-c2nc(C)cc(C(=O)Nc3cccc(C(C)(F)F)c3)n2)c1` [Compound 219, N-(3-(1,1-difluoroethyl)phenyl)-6-methyl-2-(5-methyl-[1,1’-biphenyl]-3-yl)pyrimidine-4-carboxamide], the half-inhibitory concentration (IC50) is more than 100 nM.

With `Cc1nn(-c2ccc(OC(F)F)cc2)c(N)c1C(=O)Nc1cccc(C(C)(F)F)c1` [Compound 171, 5-amino-N-(3-(1,1-difluoroethyl)phenyl)-1-(4-(difluoromethoxy)phenyl)-3-methyl-1H-pyrazole-4-carboxamide], the IC50 was more than 100 nM.

As to `CCC(F)(F)c1cccc(NC(=O)C2C(=O)N(c3cc(Cc4ccccc4)c(OC)c(-c4ccccc4)c3)N=C2C)c1` (centres unmarked) [Compound 121, 1-(5-benzyl-6-methoxy-[1,1′-biphenyl]-3-yl)-N-(3-(1,1-difluoropropyl)phenyl)-3-methyl-5-oxo-4,5-dihydro-1H-pyrazole-4-carboxamide], the IC50 was 1 to 100 nM.

For the molecule `Cc1cc(C(=O)Nc2cccc(C(C)(F)F)c2)nc(-c2ccc(OC(F)F)cc2)n1` [Compound 147, N-(3-(1,1-difluoroethyl)phenyl)-2-(4-(difluoromethoxy)phenyl)-6-methylpyrimidine-4-carboxamide], the IC50 was 1 to 100 nM.

Turning to `CC1=NN(c2ccc(OC(F)(F)F)cc2)C(=O)C1(F)C(=O)Nc1cccc(C(C)(F)F)c1` (centres unmarked) [Compound 203, N-(3-(1,1-difluoroethyl)phenyl)-4-fluoro-3-methyl-5-oxo-1-(4-(trifluoromethoxy)phenyl)-4,5-dihydro-1H-pyrazole-4-carboxamide], the half-inhibitory concentration (IC50) was more than 100 nM.

`COc1ccc(-c2nc(C(=O)Nc3cccc(C(C)(F)F)c3)c(C)o2)cc1` [Compound 153, N-[3-(1,1-difluoroethyl)phenyl]-2-(4-methoxyphenyl)-5-methyl-oxazole-4-carboxamide]: the IC50 was more than 100 nM.

Take `CCCC1(C(=O)Nc2cccc(C(C)(F)F)c2)C(=O)N(c2ccc(OC(F)F)c(-c3ccccc3)c2)N=C1C` (centres unmarked) [Compound 111, N-(3-(1,1-difluoroethyl)phenyl)-1-(6-(difluoromethoxy)-[1,1′-biphenyl]-3-yl)-3-methyl-5-oxo-4-propyl-4,5-dihydro-1H-pyrazole-4-carboxamide]: the IC50 is more than 100 nM.

On to `CCC(F)(F)c1cccc(NC(=O)c2nc(-c3ccc(OC(F)F)c(-c4ccccc4)c3)[nH]c2C)c1` [Compound 218, 2-(6-(difluoromethoxy)-[1,1′-biphenyl]-3-yl)-N-(3-(1,1-difluoropropyl)phenyl)-5-methyl-1 H-imidazole-4-carboxamide], for which the IC50 is more than 100 nM.

In the case of `CCC(F)(F)c1cccc(NC(=O)C2C(=O)N(c3cc(Cc4ccc(Cl)cc4)c(OC)c(-c4ccccc4)c3)N=C2C)c1` (centres unmarked) [Compound 236, 1-(5-(4-chlorobenzyl)-6-methoxy-[1,1′-biphenyl]-3-yl)-N-(3-(1,1-difluoropropyl)phenyl)-3-methyl-5-oxo-4,5-dihydro-1H-pyrazole-4-carboxamide], the 50% inhibitory concentration (IC50) fell in the range of 1 to 100 nM.

In the case of `Cc1ncc(-c2ccc(OC(F)F)c(-c3ccccc3)c2)nc1C(=O)Nc1cccc(C(C)(F)F)c1` [Compound 118, N-[3-(1,1-difluoroethyl)phenyl]-6-[4-(difluoromethoxy)-3-phenyl-phenyl]-3-methyl-pyrazine-2-carboxamide], the 50% inhibitory concentration (IC50) was more than 100 nM.
